Values of other authors, collected in US6723737B1 (priority 1999, dated 2004).

Tests used:
[1] = tested on: genetically obese experimental animals
young men = conditions: after caffeine ingestion, statistically significant

SMILES	weight loss [1]	levels of free fatty acids (young men)
Cn1c(=O)c2c(ncn2C)n(C)c1=O [caffeine, 1,3,7-trimethylxanthine]	did not produce weight loss	increased the levels of free fatty acids
Cn1c(=O)c2[nH]cnc2n(C)c1=O [theophylline, 1,3-dimethylxanthine]	did not produce weight loss	–
